Article PMC6990405, “Synthesis and Structure–Activity relationship of 1-(5-isoquinolinesulfonyl)piperazine analogues as inhibitors of Mycobacterium tuberculosis IMPDH” (European Journal of Medicinal Chemistry, 2019)
In brackets after ≈: the same amount, converted by molar mass.

Assays:
[1] = test system: M. tuberculosis SRMV2.6 (IMPDH Tyr487Cys); assay type: cell-based, Mycobacterium tuberculosis
[2] = test system: M. tuberculosis guaB2 cKD mutant; assay type: cell-based; details: increase in potency against guaB2 cKD mutant upon guaB2 silencing

Row | Structure (SMILES) | MIC90 against SRMV2.6 [1] | Hyper-sensitivity to guaB2 cKD [2]
1 | O=C(C1CCCCC1)N1CCN(S(=O)(=O)c2cccc3cnccc23)CC1 [Compound 1, Cyclohexyl[4-(isoquinoline-5-sulfonyl)piperazin-1-yl]methanone] | 250 µM (≈ 96.9 µg/mL) | ∼32-fold
2 | CC1CCCCC1C(=O)N1CCN(S(=O)(=O)c2cccc3cnccc23)CC1 (stereo not drawn) [Compound 13, [4-(isoquinoline-5-sulfonyl)piperazin-1-yl](2-methylcyclohexyl)methanone] | >250 µM | 16–32-fold
3 | O=C(C1CCCCCC1)N1CCN(S(=O)(=O)c2cccc3cnccc23)CC1 [Compound 14, Cycloheptyl[4-(isoquinoline-5-sulfonyl)piperazin-1-yl]methanone] | >250 µM | 16-fold
4 | O=C(c1cccc([N+](=O)[O-])c1)N1CCN(S(=O)(=O)c2cccc3cnccc23)CC1 [Compound 18, [4-(isoquinoline-5-sulfonyl)piperazin-1-yl](3-nitrophenyl)methanone] | 50 µM (≈ 21.3 µg/mL) | 8-fold
5 | O=C(CC1CCCCC1)N1CCN(S(=O)(=O)c2cccc3cnccc23)CC1 [Compound 22, 2-Cyclohexyl-1-(4-(isoquinolin-5-ylsulfonyl)piperazin-1-yl)ethan-1-one] | >250 µM | 16-fold
6 | O=C(Nc1ccc2c(c1)OCO2)N1CCCN(S(=O)(=O)c2cccc3cnccc23)CC1 [Compound 44, 4-(isoquinoline-5-sulfonyl)-N-(2H-1,3-benzodioxol-5-yl)-1,4-diazepane-1-carboxamide] | >100 µM | 8–16-fold
7 | CC1CN(S(=O)(=O)c2cccc3cnccc23)CCN1C(=O)Nc1ccc2c(c1)OCO2 (stereo not drawn) [Compound 45, N-(benzo[d][1,3]dioxol-5-yl)-4-(isoquinolin-5-ylsulfonyl)-2-methylpiperazine-1-carboxamide] | >100 µM | 8–16-fold
8 | O=C(NCc1ccccc1)N1CCN(S(=O)(=O)c2cccc3cnccc23)CC1 [Compound 46, N-benzyl-4-(isoquinolin-5-ylsulfonyl)piperazine-1-carboxamide] | >100 µM | 8-fold
9 | Cc1ccccc1CNC(=O)N1CCN(S(=O)(=O)c2cccc3cnccc23)CC1 [Compound 48, 4-(isoquinolin-5-ylsulfonyl)-N-(2-methylbenzyl)piperazine-1-carboxamide] | 15.6 µM (≈ 6.62 µg/mL) | 16–32-fold
